44 molecules from patent US6784201B2, “Benzothiepines having activity as inhibitors of ileal bile acid transport and taurocholate uptake” (G.D. Searle & Company, priority 1994, dated 2004) can be followed below.

The target in this assay is T1, human IBAT (Homo sapiens, UniProt Q12908).
T1 construct: expressed in transfected cells; host or cells: Baby hamster kidney (BHK) cells, clone H14
T1 sequence (Q12908 1-348): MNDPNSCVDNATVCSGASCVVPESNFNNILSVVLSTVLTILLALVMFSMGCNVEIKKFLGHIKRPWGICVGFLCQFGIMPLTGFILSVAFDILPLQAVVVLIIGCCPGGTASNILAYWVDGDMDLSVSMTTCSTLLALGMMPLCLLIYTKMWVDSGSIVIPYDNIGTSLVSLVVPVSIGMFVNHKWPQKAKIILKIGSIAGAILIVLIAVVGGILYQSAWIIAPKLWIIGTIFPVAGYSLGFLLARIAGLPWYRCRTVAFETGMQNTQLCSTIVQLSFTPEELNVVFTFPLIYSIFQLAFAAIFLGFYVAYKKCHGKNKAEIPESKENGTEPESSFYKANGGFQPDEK
Nature of the assay: In vitro assay of IBAT-mediated uptake of [14C]-taurocholate (TC) in H14 cells. Format: cell-based. In outline:
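BHK cells stably expressing human IBAT (H14) were incubated 2 h at 37° C with compound and 3 μM final [14C]-taurocholate in DMEM (4.5 g/L glucose) plus 0.2% fatty acid-free BSA. After cold PBS washes, cell-associated radioactivity was measured by scintillation counting.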

Where two headings read alike, the source gives them in different places.

Broadly, the IC50 is the concentration that inhibits the measured activity by half. Regarding `CCCCC1(CCCC)CS(=O)(=O)c2ccc(N(C)C)cc2C(c2cccc([N+](C)(C)C)c2)C1O` (centres unmarked) [Example 1245], for the setting “read-out: Human TC IC50”, the IC50 worked out at 320 nM.

As to `CCCCC1(CCCC)CS(=O)(=O)c2ccc(N(C)C)cc2C(c2cccc(CBr)c2)C1O` (centres unmarked) [Example 1246], the IC50 (read-out: Human TC IC50) stood at 18 nM.

For the molecule `CCCCC1(CCCC)CS(=O)(=O)c2ccc(N(C)C)cc2C(c2ccc3cc(O)ccc3c2)C1O` (centres unmarked) [Example 1247], for the setting “read-out: Human TC IC50”, the IC50 is 17 nM.

For `CCCCC1(CCCC)CS(=O)(=O)c2ccc(N(C)C)cc2C(c2ccc(O)c(CN(C)C)c2)C1O` (centres unmarked) [Example 1248], under “read-out: Human TC IC50”, the IC50 came to 330 nM.

Turning to `CCCCC1(CCCC)CS(=O)(=O)c2ccc(N(C)C)cc2C(c2ccc(C[N+](C)(C)CCO)cc2)C1O` (centres unmarked) [Example 1249], where the note is “read-out: Human TC IC50”, the IC50 was determined as 10200 nM.

`CCCCC1(CCCC)CS(=O)(=O)c2ccc(N(C)C)cc2C(c2cccc(N(C)C)c2)C1O` (centres unmarked) [Example 1250]: the IC50 (read-out: Human TC IC50) came to 13 nM.

On to `CCCCC1(CCCC)CS(=O)(=O)c2ccc(N(C)C)cc2C(c2cccc3ccccc23)C1O` (centres unmarked) [Example 1251], for which the IC50 (read-out: Human TC IC50) stood at 620 nM.

`CCCCC1(CCCC)CS(=O)(=O)c2ccc(N(C)C)cc2C(c2ccc(OCCC[N+](CC)(CC)CC)cc2)C1O` (centres unmarked) [Example 1252]: the IC50 (read-out: Human TC IC50) is 29000 nM.

Regarding `CCCCC1(CCCC)CS(=O)(=O)c2ccc(N(C)C)cc2C(c2ccc(OC)c(C[N+](C)(C)C)c2)C1O` (centres unmarked) [Example 1253], where the note is “read-out: Human TC IC50”, the IC50 turned out to be 300 nM.

Regarding `CCCCC1(CCCC)CS(=O)(=O)c2ccc(N(C)C)cc2C(c2ccc(C[n+]3ccccc3)cc2)C1O` (centres unmarked) [Example 1254], the IC50 (read-out: Human TC IC50) came out at 850 nM.

Consider `CCCCC1(CCCC)CS(=O)(=O)c2ccc(N(C)C)cc2C(c2cccc(C[N+](C)(C)CC[N+](C)(C)C)c2)C1O` (centres unmarked) [Example 1255], for which the IC50 (read-out: Human TC IC50) is 690 nM.

`CCCCC1(CCCC)CS(=O)(=O)c2ccc(N(C)C)cc2C(c2cccc([N+](=O)[O-])c2)C1O` (centres unmarked) [Example 1256]: the IC50 (read-out: Human TC IC50) worked out at 11 nM.

For `CCCCC1(CCCC)CS(=O)(=O)c2cc(Br)c(N(C)C)cc2C(c2ccccc2)C1O` (centres unmarked) [Example 1257], the IC50 (read-out: Human TC IC50) worked out at 100 nM.

With `CCCCC1(CCCC)CS(=O)(=O)c2c(NC(C)(C)C)cccc2C(c2ccc(F)cc2)C1O` (centres unmarked) [Example 1258], the IC50 (read-out: Human TC IC50) was 120 nM.

Take `CCCCC1(CC)CS(=O)(=O)c2ccc(N(C)C)cc2C(c2cccc(O)c2)C1O` (centres unmarked) [Example 1260]: the IC50 (read-out: Human TC IC50) amounted to 12 nM.

Turning to `CCCCC1(CCCC)CS(=O)(=O)c2ccc(N(C)C)cc2C(c2cccs2)C1O` (centres unmarked) [Example 1262], the IC50 (read-out: Human TC IC50) stood at 30 nM.

`CCCCC1(CCCC)CS(=O)(=O)c2ccc(NC(C)C)cc2C(c2ccc(F)cc2)C1O` (centres unmarked) [Example 1264]: the IC50 (read-out: Human TC IC50) was determined as 210 nM.

Consider `CCCCC1(CCCC)CS(=O)(=O)c2c(NC(C)C)cccc2C(c2ccc(F)cc2)C1O` (centres unmarked) [Example 1265], for which the IC50 (read-out: Human TC IC50) was found to be 240 nM.

Take `CCCCC1(CCCC)CS(=O)(=O)c2ccc(N(C)C)cc2C(c2ccc(OCCCCCCCCCC[N+](CC)(CC)CC)cc2)C1O` (centres unmarked) [Example 1268]: the IC50 (read-out: Human TC IC50) was 35 nM.

As to `CCCCC1(CCCC)CS(=O)(=O)c2ccc(N(C)C)cc2C(c2ccc(OCCCCCCCCCCI)cc2)C1O` (centres unmarked) [Example 1269], under “read-out: Human TC IC50”, the IC50 came to 26 nM.

Turning to `CCCCC1(CCCC)CS(=O)(=O)c2ccc(N(C)C)cc2C(c2ccc(OCCCCBr)c(F)c2)C1O` (centres unmarked) [Example 1270], the IC50 (read-out: Human TC IC50) turned out to be 26 nM.

On to `CCCCC1(CCCC)CS(=O)(=O)c2ccc(N(C)C)cc2C(c2cccc(OCCOCCOCC[N+](C)(C)CCN(CC)S(=O)(=O)c3ccccc3)c2)C1O` (centres unmarked) [Example 1271], for which the 50% inhibitory concentration (IC50) (read-out: Human TC IC50) was 11 nM.

Consider `CCCCC1(CCCC)CS(=O)(=O)c2ccc(N(C)C)cc2C(c2cccc(OCCOCCOCC[n+]3cccc(CC(=O)O)c3)c2)C1O` (centres unmarked) [Example 1272], for which, for the setting “read-out: Human TC IC50”, the IC50 is 47 nM.

In the case of `CCCCCCCCC[N+](CCCCCCCCC)(CCCCCCCCC)CCOCCOCCOc1cccc(C2c3cc(N(C)C)ccc3S(=O)(=O)CC(CCCC)(CCCC)C2O)c1` (centres unmarked) [Example 1273], the IC50 (read-out: Human TC IC50) was determined as 29 nM.

Turning to `CCCCC1(CCCC)CS(=O)(=O)c2ccc(N(C)C)cc2C(c2ccc(OCc3cccc(CCl)n3)c(F)c2)C1O` (centres unmarked) [Example 1274], the IC50 (read-out: Human TC IC50) worked out at 28 nM.

Consider `CCCCC1(CCCC)CS(=O)(=O)c2ccc(N(C)C)cc2C(c2ccc(OCCOCC[N+]3(C)CC[N+](C)(C)CC3)c(F)c2)C1O` (centres unmarked) [Example 1275], for which the IC50 (read-out: Human TC IC50) was 24 nM.

As to `CCCCC1(CCCC)CS(=O)(=O)c2ccc(N(C)C)cc2C(c2cccc(OCCOCCOCC[N+](CCCCCCC(C)C)(CCCCCCC(C)C)CCCCCCC(C)C)c2)C1O` (centres unmarked) [Example 1276], the IC50 (read-out: Human TC IC50) was 29 nM.

As for `CCCCC1(CCCC)CS(=O)(=O)c2ccc(N(C)C)cc2C(c2ccc(OCCOCCN(C)CC(=O)O)c(F)c2)C1O` (centres unmarked) [Example 1277], the IC50 (read-out: Human TC IC50) stood at 18 nM.

Turning to `CCCCC[N+](CCCCC)(CCCCC)CCOCCOCCOc1cccc(C2c3cc(N(C)C)ccc3S(=O)(=O)CC(CCCC)(CCCC)C2O)c1` (centres unmarked) [Example 1278], the IC50 (read-out: Human TC IC50) was 17 nM.

Regarding `CCCCCC[N+](CCCCCC)(CCCCCC)CCOCCOCCOc1cccc(C2c3cc(N(C)C)ccc3S(=O)(=O)CC(CCCC)(CCCC)C2O)c1` (centres unmarked) [Example 1279], under “read-out: Human TC IC50”, the IC50 is 28 nM.

For `CCCCC1(CCCC)CS(=O)(=O)c2ccc(N(C)C)cc2C(c2ccc(CC(=O)N(C)CN(C)C)c(F)c2)C1O` (centres unmarked) [Example 1280], the IC50 (Human TC IC50) came out at 760 nM.

Turning to `CCCCC1(CCCC)CS(=O)(=O)c2ccc(N(C)C)cc2C(c2ccc(OCCCCCCI)cc2)C1O` (centres unmarked) [Example 1281], the IC50 (read-out: Human TC IC50) was found to be 55 nM.

In the case of `CCCCC1(CC)CS(=O)(=O)c2ccc([N+](C)(C)C)cc2C(c2ccc(OC)c(F)c2)C1O` (centres unmarked) [Example 1282], under “read-out: Human TC IC50”, the IC50 was 170 nM.

Take `CCCCC1(CCCC)CS(=O)(=O)c2ccc(N(C)C)cc2C(c2ccc(CO)cc2)C1O` (centres unmarked) [Example 1283]: the IC50 (read-out: Human TC IC50) came to 170 nM.

On to `CCCCC1(CCCC)CS(=O)(=O)c2c(NCC)cccc2C(c2ccc(F)cc2)C1O` (centres unmarked) [Example 1284], for which the IC50 (read-out: Human TC IC50) stood at 11 nM.

Regarding `CCCCC1(CC)CS(=O)(=O)c2ccc(N(C)C)cc2C(c2ccccc2)C1O` (centres unmarked) [Example 1285], where the note is “Human TC IC50”, half-maximal inhibition (IC50) required 27 nM.

Turning to `CCCCC1(CCCC)CS(=O)(=O)c2ccc(N(C)C)cc2C(c2ccc(OCCC[N+](CCCC)(CCCC)CCCC)c(F)c2)C1O` (centres unmarked) [Example 1286], the IC50 (read-out: Human TC IC50) is 68 nM.

Take `CCCCC1(CCCC)CS(=O)(=O)c2ccc(N(C)C)cc2C(c2cccc(OCCOCCOCC[N+]3(CCOc4ccc(Br)cc4)CCCC3)c2)C1O` (centres unmarked) [Example 1288]: the IC50 (read-out: Human TC IC50) turned out to be 13 nM.

Turning to `CCCCCCCC[N+](CCCCCCCC)(CCCCCCCC)CCOCCOCCOc1cccc(C2c3cc(N(C)C)ccc3S(=O)(=O)CC(CCCC)(CCCC)C2O)c1` (centres unmarked) [Example 1289], the IC50 (read-out: Human TC IC50) was 26 nM.

For the molecule `CCCCC1(CCCC)CS(=O)(=O)c2ccc(N(C)C)cc2C(c2ccc(OCCC[n+]3ccccc3CCCO)c(F)c2)C1O` (centres unmarked) [Example 1290], the IC50 (read-out: Human TC IC50) was 17 nM.

Regarding `CCCCC1(CCCC)CS(=O)(=O)c2ccc(N(C)C)cc2C(c2ccc(OCc3cccc[n+]3C)c(F)c2)C1O` (centres unmarked) [Example 1291], the IC50 (read-out: Human TC IC50) was 13 nM.

Turning to `CCCCC1(CCCC)CS(=O)(=O)c2ccc(N(C)C)cc2C(c2cccc(OCCOCCOCC[P+](c3ccccc3)(c3ccccc3)c3ccccc3)c2)C1O` (centres unmarked) [Example 1292], the IC50 (read-out: Human TC IC50) was 25 nM.

Turning to `CCCCC1(CCCC)CS(=O)(=O)c2ccc(N(C)C)cc2C(c2cccc(OCCOCCOCC[N+](CC)(CC)CCC(C)=O)c2)C1O` (centres unmarked) [Example 1293], the IC50 (read-out: Human TC IC50) worked out at 19 nM.

For the molecule `CCCCC1(CCCC)CS(=O)(=O)c2ccc(N(C)C)cc2C(c2cccc(OCCOCCOCC[N+]3(c4ccccc4)CCCCC3)c2)C1O` (centres unmarked) [Example 1294], the IC50 (read-out: Human TC IC50) was 11 nM.
